Data on two molecules can be found in US20100137300A1, “Indolizine Acetic Acid Derivatives as CRTH2 Antagonists” (priority 2007, published 2010).

The structures appear in SMILES notation. pIC50: −log10 of the molar value.

This test has as its target T1, CRTH2 receptor (Homo sapiens, UniProt Q9Y5Y4).
T1 construct: expressed in transfected cells; host or cells: Human embryonic kidney (HEK) cells, membranes
T1 sequence (Q9Y5Y4 1-395): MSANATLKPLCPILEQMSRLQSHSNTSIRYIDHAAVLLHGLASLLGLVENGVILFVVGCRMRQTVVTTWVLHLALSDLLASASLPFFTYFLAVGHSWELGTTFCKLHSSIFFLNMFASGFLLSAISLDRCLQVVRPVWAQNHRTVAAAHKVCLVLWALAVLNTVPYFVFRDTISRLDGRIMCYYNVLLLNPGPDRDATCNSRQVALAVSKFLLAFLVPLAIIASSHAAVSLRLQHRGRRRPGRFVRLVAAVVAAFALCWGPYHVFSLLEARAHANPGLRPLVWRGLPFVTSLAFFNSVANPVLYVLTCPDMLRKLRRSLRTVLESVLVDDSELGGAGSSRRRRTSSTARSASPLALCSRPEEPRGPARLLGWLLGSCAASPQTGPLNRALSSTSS
Briefly: CRTH2 radioligand binding assay ([3H]-PGD2 displacement). The settings on record: HEK cell membranes expressing the CRTH2 receptor, 1 nM [3H]-PGD2. The protocol:
The receptor binding assay is performed in a final volume of 200 μL binding buffer [10 mM BES (pH 7.4), 1 mM EDTA, 10 mM manganese chloride, 0.01% BSA] and 1 nM [^3H]-PGD2 (Amersham Biosciences UK Ltd). Ligands are added in assay buffer containing a constant amount of DMSO (1% by volume). Total binding is determined using 1% by volume of DMSO in assay buffer and non-specific binding is determined using 10 μM of unlabeled PGD2 (Sigma). Human embryonic kidney (HEK) cell membranes (3.5 μg) expressing the CRTH2 receptor are incubated with 1.5 mg wheatgerm agglutinin SPA beads and 1 nM [^3H]-PGD2 (Amersham Biosciences UK Ltd) and the mixture incubated for 3 hours at room temperature. Bound [^3H]-PGD2 is detected using a Microbeta TRILUX liquid scintillation counter (Perkin Elmer). Compound IC50 value is determined using a 6-point dose response curve in duplicate with a semi-log compound dilution series. IC50 calculations are performed using Excel and XLfit (Microsoft), and this value is used to determine a Ki value for the test compound using the Cheng-Prusoff equation.

`Cc1c(Cc2ccc3cc(F)ccc3n2)c2cc(C#N)ccn2c1CC(=O)O` [Example 6, [7-cyano-1-(6-fluoroquinolin-2-ylmethyl)-2-methylindolizin-3-yl]acetic acid]: the pIC50 is 7.72.

Take `Cc1c(Cc2ccc(S(=O)(=O)N3CCOCC3)cc2)c2cc(C#N)ccn2c1CC(=O)O` [Example 1, {7-cyano-2-methyl-1-[4-(morpholine-4-sulfonyl)benzyl]indolizin-3-yl}acetic acid]: the negative logarithm of the IC50 (pIC50) was 7.24.
